Results published in patent EP1992346A1, “PHARMACEUTICAL COMPOSITIONS CONTAINING COMBINED PLATELET AGGREGATION INHIBITING SUBSTANCES FOR USE IN THE TREATMENT AND PREVENTION OF ISCHEMIC VASCULAR EVENTS” (WORLD-TRADE IMPORT-EXPORT, WTIE, A.G., priority 2005, dated 2007).

Key:
[1] = test system: U46619-induced platelet aggregation; settings: double blind, 10-day study, 20 healthy volunteers; plasma rich in platelets
Protocol: It was a double blind, 10-day duration study that was performed in 20 healthy volunteers with an age ranging from 26 to 40 years old. The platelet activation was measured by changes in light transmission of plasma rich in platelets stimulated by a synthetic analogue of TXA2, U46619.

[2] = cited from earlier work
[3] = cited from earlier work; remark: listed apart in the source
platelet aggregation = settings: cited from earlier work
[4] = radioactively marked Clopidogrel, within a five-day period

COC(=O)[C@H](c1ccccc1Cl)N1CCc2sccc2C1 [Clopidogrel]
U46619 stimulated platelet aggregation [1]: significantly inhibited | reversibly bound to plasmatic proteins [2]: 98% | time to maximum plasmatic concentrations of primary metabolite ([3]; after a dose of 75 mg): one | plasmatic half-life ([3]; in vivo): about 8 hours | inactive primary metabolite (carboxylic acid) as share of metabolites circulating in the plasma ([3]; oral): about 85% | absorption ([3]; oral, not significantly affected by food): 50% | eliminated through feces [3, 4]: 46% | eliminated through urine [3, 4]: About 50% | plasmatic concentrations of the unaltered drug ([3]; two hours after an oral dose): no longer detectable | time for platelet aggregation and bleeding-time to return to basal level (platelet aggregation; after the treatment discontinuation): five | platelet aggregation inhibited (platelet aggregation; in balanced conditions, 75 mg per day): 40-60% | activity in vitro (platelet aggregation; in vitro, requires hepatic activation): inactive in vitro | time to maximum inhibition of platelet aggregation (platelet aggregation; iterative doses of 75 mg per day): 3 to 7 days | inhibition of platelet aggregation (platelet aggregation; two hours after a single oral dose): already observed an inhibition of platelet aggregation
